According to PubChem BioAssay (NCI):
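How tested: cells in 96-well plates exposed to compound for 48 hours at five concentrations. TGI denotes the concentration required for complete inhibition of growth.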

These compounds were tested on NCI-H226 lung (assay: NCI anticancer screen, dose series, 48 h).

First: CCN1CCC(O)(/C=C/c2ccc(C)cc2C)C(C(=O)/C=C/c2ccc(C)cc2C)C1 (stereo not drawn)
Second: Nc1ccc(C(=O)N2CCC[C@H]2CO)c(N)c1
The TGI of the first is lower: 7.79 µM for the first, greater than 100 µM for the second.

S=C(Nc1ccc2c(c1)oc1ccccc12)c1cccnc1 and O=c1oc2ccc([N+](=O)[O-])cc2c(Nc2ccc3c(c2)Oc2ccccc2O3)c1[N+](=O)[O-] are within 1.5-fold of each other in TGI: 96.1 µM for the first, 87.1 µM for the second.

C=C([C@@]1(O)C[C@H]2[C@H](CCC2(OC)OC)[C@@H]2c3ccccc3O[C@@H]21)[Si](C)(C)C and CC1=C(CO)C(=O)O[C@@H]([C@@H](CO)[C@H]2CCC3C4C[C@@H](O)[C@@]5(O)CC=CC(=O)[C@]5(C)C4CC[C@@]32C)C1 (stereo partly drawn) cannot be ordered by TGI: greater than 100 µM for the first, greater than 100 µM for the second.

O=C(O)c1ccc(OCc2nc3cc(C(F)(F)F)ccc3nc2-c2ccccc2)cc1 and CN(C)c1ccc(C2SCC(=O)N2c2ccc(Oc3ccc(Cl)cc3)c(Cl)c2)cc1 (stereo not drawn) cannot be ordered by TGI: greater than 100 µM for the first, greater than 100 µM for the second.

Compared with COc1ccc2c(c1)CCN1CCc3ccccc3CC21 (stereo not drawn), O=C1c2ccccc2C2(c3ccc(Cl)cc3)N[C@H]3CCCC[C@@H]3N12 (stereo partly drawn) is higher in TGI: 83.5 µM for the first, greater than 100 µM for the second.

COc1ccc(/C=C2\N=C(SC)NC2=O)cc1 and Cn1c2ccccc2c(=O)c2cccc(C(=O)NC(CCCN=C(N)N)C(=O)O)c21 (stereo not drawn) cannot be ordered by TGI: greater than 100 µM for the first, greater than 100 µM for the second.

What follows are compounds tested on NCI-H23 lung (assay: NCI anticancer screen, dose series, 48 h).

Going from C=C1C(=O)C=C[C@]2(C)CC[C@H]3C(=C)C(=O)O[C@@H]3[C@@H]12 to CC1=C(CO)C(=O)O[C@@H]([C@@H](CO)[C@H]2CCC3C4C[C@@H](O)[C@@]5(O)CC=CC(=O)[C@]5(C)C4CC[C@@]32C)C1 (stereo partly drawn), the TGI rises from 9.61 µM to greater than 100 µM.

CC12CCC(O)CC1CCC1C2CCC2(C)C(C(=O)CC(O)C(F)(F)F)CCC12 (stereo not drawn) and CC(=O)OCC1OC(n2c3c(cc(C#N)c2=S)CCCCC3)C(OC(C)=O)C(OC(C)=O)C1OC(C)=O (stereo not drawn) cannot be ordered by TGI: greater than 100 µM for the first, greater than 100 µM for the second.

Compared with CC(C)(C)OC(=O)NCCCNC1(c2cc3ccccc3s2)CCCCC1, CC(C)(C)C(=O)CC1=Nc2ccccc2SC1(O)CC(=O)C(C)(C)C (stereo not drawn) is 3.7-fold higher in TGI: 26.4 µM for the first, 98.7 µM for the second.

Compared with N#CC1=C(N)N(c2ccccc2)C(c2ccccc2)C1(C#N)C#N (stereo not drawn), O=C(O)/C=c1/c2ccccc2n2nc3ccccc3c12 is higher in TGI: 44.8 µM for the first, greater than 100 µM for the second.

C=CCOc1ccc(C2(O)c3ccccc3C3=NCCCN32)cc1 (stereo not drawn) and O=C1c2ccccc2C2(c3ccc(Cl)cc3)N[C@H]3CCCC[C@@H]3N12 (stereo partly drawn) cannot be ordered by TGI: greater than 100 µM for the first, greater than 100 µM for the second.

O=C1/C(=C/c2ccc(Cl)cc2)CSc2ccccc21 and CN(C)c1ccc(C2SCC(=O)N2c2ccc(Oc3ccc(Cl)cc3)c(Cl)c2)cc1 (stereo not drawn) are within 1.5-fold of each other in TGI: 45.1 µM for the first, 45.4 µM for the second.

Compared with CCC/C(Cl)=N\OC(=O)Nc1ccc(OC(F)(F)F)cc1, O=C(O)c1ccc(OCc2nc3cc(C(F)(F)F)ccc3nc2-c2ccccc2)cc1 is higher in TGI: 53.8 µM for the first, greater than 100 µM for the second.

COc1cccc(/C=N/n2c(C)n[nH]c2=O)c1 and COc1ccc(/C=C2\N=C(SC)NC2=O)cc1 cannot be ordered by TGI: greater than 100 µM for the first, greater than 100 µM for the second.

Cc1ccc(S(=O)(=O)NC(=O)N[C@@H](Cc2cnc[nH]2)C(=O)O)cc1 and Cn1c2ccccc2c(=O)c2cccc(C(=O)NC(CCCN=C(N)N)C(=O)O)c21 (stereo not drawn) cannot be ordered by TGI: greater than 100 µM for the first, greater than 100 µM for the second.

Compared with CCN1CCC(O)(/C=C/c2ccc(C)cc2C)C(C(=O)/C=C/c2ccc(C)cc2C)C1 (stereo not drawn), Nc1ccc(C(=O)N2CCC[C@H]2CO)c(N)c1 is higher in TGI: 7.86 µM for the first, greater than 100 µM for the second.

Compared with S=C(Nc1ccc2c(c1)oc1ccccc12)c1cccnc1, O=c1oc2ccc([N+](=O)[O-])cc2c(Nc2ccc3c(c2)Oc2ccccc2O3)c1[N+](=O)[O-] is lower in TGI: greater than 100 µM for the first, 62.3 µM for the second.

Cc1cc(S(=O)(=O)Nc2nc3cc(-c4ccc(Cl)cc4)sc3c(=O)n2N)c(S)cc1Cl and [N-]=[N+]=NC1=C(c2ccccn2)C(=O)c2cccc3cccc1c23 cannot be ordered by TGI: greater than 100 µM for the first, greater than 100 µM for the second.

COc1ccc2c(c1)CCN1CCc3ccccc3CC21 (stereo not drawn) showed a TGI greater than 100 µM.

The compounds below were run on NCI/ADR-RES ovarian (assay: NCI anticancer screen, dose series, 48 h).

Compared with C=C1C(=O)C=C[C@]2(C)CC[C@H]3C(=C)C(=O)O[C@@H]3[C@@H]12, C=C([C@@]1(O)C[C@H]2[C@H](CCC2(OC)OC)[C@@H]2c3ccccc3O[C@@H]21)[Si](C)(C)C is higher in TGI: 7.02 µM for the first, greater than 100 µM for the second.

CC12CCC(O)CC1CCC1C2CCC2(C)C(C(=O)CC(O)C(F)(F)F)CCC12 (stereo not drawn) and CC(=O)OCC1OC(n2c3c(cc(C#N)c2=S)CCCCC3)C(OC(C)=O)C(OC(C)=O)C1OC(C)=O (stereo not drawn) cannot be ordered by TGI: greater than 100 µM for the first, greater than 100 µM for the second.

Going from CC(C)(C)OC(=O)NCCCNC1(c2cc3ccccc3s2)CCCCC1 to CC(C)(C)C(=O)CC1=Nc2ccccc2SC1(O)CC(=O)C(C)(C)C (stereo not drawn), the TGI rises from 30.2 µM to 66.8 µM (2.2-fold).

N#CC1=C(N)N(c2ccccc2)C(c2ccccc2)C1(C#N)C#N (stereo not drawn) and O=C1/C(=C/c2ccc(Cl)cc2)CSc2ccccc21 are within 1.5-fold of each other in TGI: 45.3 µM for the first, 34.5 µM for the second.

C=CCOc1ccc(C2(O)c3ccccc3C3=NCCCN32)cc1 (stereo not drawn) and O=C(O)c1ccc(OCc2nc3cc(C(F)(F)F)ccc3nc2-c2ccccc2)cc1 cannot be ordered by TGI: greater than 100 µM for the first, greater than 100 µM for the second.

CCC/C(Cl)=N\OC(=O)Nc1ccc(OC(F)(F)F)cc1 and COc1ccc(/C=C2\N=C(SC)NC2=O)cc1 cannot be ordered by TGI: greater than 25.3 µM for the first, greater than 100 µM for the second.

COc1cccc(/C=N/n2c(C)n[nH]c2=O)c1 and COc1ccc2c(c1)CCN1CCc3ccccc3CC21 (stereo not drawn) cannot be ordered by TGI: greater than 100 µM for the first, greater than 100 µM for the second.

Cc1ccc(S(=O)(=O)NC(=O)N[C@@H](Cc2cnc[nH]2)C(=O)O)cc1 and Cc1cc(S(=O)(=O)Nc2nc3cc(-c4ccc(Cl)cc4)sc3c(=O)n2N)c(S)cc1Cl cannot be ordered by TGI: greater than 100 µM for the first, greater than 100 µM for the second.

Compared with CCN1CCC(O)(/C=C/c2ccc(C)cc2C)C(C(=O)/C=C/c2ccc(C)cc2C)C1 (stereo not drawn), Nc1ccc(C(=O)N2CCC[C@H]2CO)c(N)c1 is higher in TGI: 7.31 µM for the first, greater than 100 µM for the second.

S=C(Nc1ccc2c(c1)oc1ccccc12)c1cccnc1 and [N-]=[N+]=NC1=C(c2ccccn2)C(=O)c2cccc3cccc1c23 cannot be ordered by TGI: greater than 100 µM for the first, greater than 100 µM for the second.

CN(C)c1ccc(C2SCC(=O)N2c2ccc(Oc3ccc(Cl)cc3)c(Cl)c2)cc1 (stereo not drawn) showed a TGI of 50.7 µM.
